Series [1] concerns Croton Oil-Induced Mouse Ear Edema. Briefly: Croton oil-induced ear edema in mice (Example 1). Type of series: in vivo. The following applies: for % Inhibition of Croton Oil-Induced Mouse Ear Edema: topical, 6 h, mean of 10 to 15 animals; for Reduction in ear edema in the croton oil assay (in words): zinterol at 1.6 and 0.2 w/v percent, bitolterol at 1.6 w/v percent; for Topical Anti-Inflammatory Activity, Croton Oil Assay (Edema): summary grade of % inhibition. The procedure:
In the croton oil assay, (which is a standard test, which is fully described in Tonelli et al, Endocrinology, vol. 77, pp. 625-634, 1965, and which is hereby incorporated herein by reference) topical application of four % croton oil in ethanol (v/v) to the ears of mice causes intercellular edema, vasodilation, and polymorphonuclear leucocyte infiltration into the dermis, leading to an increase over normal ear weight of about 70 to 100%. The inflammatory response is nearly maximal by 6 hours. In the croton oil tests, four volume % croton oil in ethanol was applied to the inner aspect of both ears of each test mouse, and various test materials in vehicle systems were applied to the outer aspect of the ears immediately following croton oil application. Control animals were exposed either to croton oil alone or to croton oil followed by the vehicle alone.
Six hours after exposure to croton oil and/or test material, animals were sacrificed; and punch biopsies of the ears were weighed and compared to the respective vehicle control.
Compounds were tested in simple solutions, including dimethylacetamide/acetone/ethanol (i.e., DMAC/A/E v/v 40/30/30) and N-methyl pyrrolidone/ethanol (NMP/E v/v 50/50). Comparative controls were chosen based on their known activity in each of the three above-described animal assays and included in all three tests (in Examples 1, 2 and 3) hydrocortisone valerate (HCV) in the croton oil and oxazolone assays, indomethacin (which is a potent aspirin-like nonsteroidal anti-inflammatory agent) in the UVB test, and salbutamol (a β2 agonist, discussed above in the Background of the Invention).
(§1) The percent inhibition of induced mouse ear edema (or erythema) for each of the three models (in Examples 1, 2 and 3) is calculated: [formula]

Series [2] concerns croton oil-induced ear edema in mice. Briefly: Croton oil-induced ear edema in mice, compounds IV and V vs zinterol (Example 4). The format is in vivo, Swiss albino mice. The following applies: for % Reduction of Ear Edema Weight as Compared to Control Ears, Mean ± S.D.: mean of studies; for % Reduction of Ear Edema Weight as Compared to Control Ears / Anti-inflammatory activity in croton oil-induced ear edema (in words): topical; for % Reduction of Ear Edema Weight as Compared to Control Ears: 6 h, single study; for Anti-inflammatory activity in croton oil-induced ear edema (in words): NMP/ETOH. The procedure: In these tests, the anti-inflammatory effect of these three β2 agonists when applied topically to the croton oil-induced ear edema in mice was investigated. In these tests, 50 μl of 4 weight percent croton oil in ethanol was applied to the inner aspects of the right and the left ears of Swiss albino mice, followed immediately by 25 μof suspensions of 0.02, 0.2, and 0.8 weight percent of compound IV and compound V in N-methylpyrrolidone/Ethyl alcohol (i.e., NMP/ETOH) applied to the outer aspect of each ear. Croton oil treated and nontreated control groups were included. These control groups are included in the data as described hereinbefore.
Six hours later, the animals were sacrificed with CO2 gas, and a 5/16 inch punch biopsy of each ear was taken and weighed immediately.
The anti-inflammatory effects for the test agents were assessed by a comparison of the biopsy weights of the test and control groups.

For series [3], the system named is Oxazolone-Induced Edema in Mouse Ear. Nature of the series: Oxazolone-induced ear edema in mice (Example 2). The format is in vivo. The following applies: for % Inhibition of Oxazolone-Induced Edema in Mouse Ear: topical, mean of 10 to 15 animals; for Topical Anti-Inflammatory Activity, Oxazolone Assay (Edema): summary grade of % inhibition. The text has this:
Oxazolone-induced contact sensitization in mice is characterized by edema and cellular infiltration, primarily of the monocyte type, with close to 100% increase in the mouse ear weight.

Series [4] has as its system UVB-Induced Erythema in Guinea Pig. Nature of the series: UVB-induced erythema in guinea pigs (Example 3). The format is in vivo. The following applies: for Topical Anti-Inflammatory Activity, UV-B Assay (Erythema): summary grade of % inhibition; for Activity in the UVB assay (in words): zinterol 3 and 1.6 weight percent, indomethacin 1 weight percent. As to the method:
as §1
In the UVB test, cutaneous erythema is induced in guinea pigs.This test is a standard test widely used for testing anti-inflammatory agents and is fully described in K. F. Swingle, "Evaluation for Anti-Inflammatory Activity", in Anti-Inflammatory Agents, vol. 2, ed. by Scherrer and Whitehouse, pp. 34-122, London: Academic Press, 1974, hereby incorporated herein by reference. In the UVB model, the test material was applied topically to the irradiated sites immediately following exposure to UVB. Erythema was scored on a 0 to 4 scale, 3 and 6 hours after irradiation.

Series [5] is described as follows: Solubility of active ingredient in vehicles. The format is physicochemical.
Setting [6] is: 1.6 w/v %, in NMP/ETOH (50/50), salbutamol in Ethanol/H2O (50/50).
Where [7] appears, read: 0.02 % weight/volume in NMP/ETOH.
Setting [8] is: 0.2 % weight/volume in NMP/ETOH.
The mark [9] stands for this setting: 0.8 % weight/volume in NMP/ETOH.
[10] abbreviates: 0.2 w/v %, in DMAC/acetone/ethanol (40:30:30).
Where [11] appears, read: 1.6 w/v %, in DMAC/acetone/ethanol (40:30:30).
[12] abbreviates: 3 w/v %, in N-methylpyrrolidone:ethanol (1:1).
[13] abbreviates: 3 w/v %, N-methyl 2-pyrrolidone/ethanol (50/50), 3 h, salbutamol in Ethanol/H2O or NMP/H2O.
The mark [14] stands for this setting: 3 w/v %, N-methyl 2-pyrrolidone/ethanol (50/50), 6 h, salbutamol in Ethanol/H2O or NMP/H2O.

Values joined by “and” are separate entries in the source; they are usually repeats but may differ in a detail not shown here. Equal entries are not always repeated. Structures can show the parent of a compound that is named as a salt.

Take `Cc1ccc(C(=O)Oc2ccc(C(O)CNC(C)(C)C)cc2OC(=O)c2ccc(C)cc2)cc1` (centres unmarked) [Bitolterol, bitolterol]: the “% Inhibition of Croton Oil-Induced Mouse Ear Edema” value was 42% and 25% and 34% in series [1] (0.2 w/v %, in NMP/ETOH (50/50)); 61% in series [1] (setting [6]). In addition, the “Reduction in ear edema in the croton oil assay (in words)” value in series [1] is “good to moderate reductions in ear edema”.

In the case of `CC(Cc1c[nH]c2ccccc12)NCC(O)c1ccc(O)c(NS(C)(=O)=O)c1` (centres unmarked) [Compound IV], the results for the “% Reduction of Ear Edema Weight as Compared to Control Ears, Mean ± S.D.” value in series [2] (setting [7]), in series [2] (setting [8]) and in series [2] (setting [9]) were 18.1 ± 10.6%, 43.7 ± 9.3% and 57.5 ± 5.8%, respectively. In addition, the “% Reduction of Ear Edema Weight as Compared to Control Ears” value in series [2] (setting [8]) is 32.9% and 48.7% and 49.4%; in series [2] (setting [9]) it was 61.6% and 53.4%. In series [2], the “Anti-inflammatory activity in croton oil-induced ear edema (in words)” value is reported as “comparable to that of zinterol”.

For `CC(C)(Cc1c[nH]c2ccccc12)NCC(O)c1ccc(O)c(NS(C)(=O)=O)c1` (centres unmarked) [Compound V], the results for the “% Reduction of Ear Edema Weight as Compared to Control Ears” value in series [2] (setting [7]), in series [2] (setting [8]) and in series [2] (setting [9]) were 29.9%, 53.5% and 69.9%, respectively. In addition, in series [2], the “Anti-inflammatory activity in croton oil-induced ear edema (in words)” value is “comparable to that of zinterol”.

Regarding `CCCCC(=O)O[C@]1(C(=O)CO)CC[C@H]2[C@@H]3CCC4=CC(=O)CC[C@]4(C)[C@H]3[C@@H](O)C[C@@]21C` [HCV, hydrocortisone valerate], the “% Inhibition of Croton Oil-Induced Mouse Ear Edema” value was 25% and 38% and 34% in series [1] (0.2 w/v %, in DMAC/Acetone/ETOH, salbutamol in Ethanol/H2O (50/50), minus = potentiation); 71% and 62% and 64% and 67% and 73% in series [1] (0.2 w/v %, in NMP/ETOH (50/50)); 70% and 71% in series [1] (setting [6]). The “Topical Anti-Inflammatory Activity, Croton Oil Assay (Edema)” value in series [1] is reported as “+++ (+++ = high (60%))”. Besides, the “% Inhibition of Oxazolone-Induced Edema in Mouse Ear” value (“% Inhibition … in Mouse Ear” for short) in series [3] (setting [10]) is 16%; in series [3] (setting [11]) it was 36% and 27%; in series [3] (setting [12]), 39%. Further, the “Topical Anti-Inflammatory Activity, Oxazolone Assay (Edema)” value in series [3] is given as “+ (+ = Slight (30-44))”.

`COc1ccc2c(c1)c(CC(=O)O)c(C)n2C(=O)c1ccc(Cl)cc1` [Indomethacin, indomethacin]: in series [1], the “Topical Anti-Inflammatory Activity, Croton Oil Assay (Edema)” value is on record as “+ (+ = Slight (30-44))”. In addition, the “% Change in UVB-Induced Erythema in Guinea Pig” value (from here on “% Change in UVB-Induced Erythema”) was 72% and 54% and 82% in series [4] (1%, DMAC/acetone/ethanol (40/30/30), 3 h); 43% and 48% and 54% in series [4] (1%, DMAC/acetone/ethanol (40/30/30), 6 h); 100% and 93% and 91% in series [4] (1%, N-methyl 2-pyrrolidone/ethanol (50/50), 3 h); 74% and 85% and 87% in series [4] (1%, N-methyl 2-pyrrolidone/ethanol (50/50), 6 h). Besides, the “Topical Anti-Inflammatory Activity, UV-B Assay (Erythema)” value in series [4] is reported as “+++ (+++ = high (60%))”. In series [4], the “Activity in the UVB assay (in words)” value was “good to very good activity”. Further, the “Topical Anti-Inflammatory Activity, Oxazolone Assay (Edema)” value in series [3] is “+ (+ = Slight (30-44))”.

Regarding `CC(C)(C)NCC(O)c1ccc(O)c(CO)c1` (centres unmarked) [Salbutamol, salbutamol], the “Topical Anti-Inflammatory Activity, Croton Oil Assay (Edema)” value in series [1] was “+ (+ = Slight (30-44))”. In addition, the “% Change in UVB-Induced Erythema” value in series [4] (1.6 w/v %, DMAC/acetone/ethanol (40/30/30), 3 h, salbutamol in Ethanol/H2O or NMP/H2O) is 9%; in series [4] (1.6 w/v %, DMAC/acetone/ethanol (40/30/30), 6 h, salbutamol in Ethanol/H2O or NMP/H2O) it was “+4%”; in series [4] (setting [13]), 42% and 45%; in series [4] (setting [14]), 32% and 25%. In series [4], the “Topical Anti-Inflammatory Activity, UV-B Assay (Erythema)” value was “+ (+ = Slight (30-44))”. Moreover, the “% Inhibition … in Mouse Ear” value is -1% and -9% in series [3] (setting [10]); 2% and 0% in series [3] (setting [11]); 21% and 28% in series [3] (1.6 w/v %, in N-methylpyrrolidone:ethanol (1:1)); 31% in series [3] (setting [12]). Further, the “Topical Anti-Inflammatory Activity, Oxazolone Assay (Edema)” value in series [3] was “+ (+ = Slight (30-44))”.

`CC(C)(Cc1ccccc1)NCC(O)c1ccc(O)c(NS(C)(=O)=O)c1` (centres unmarked) [Zinterol, 2-hydroxy-5'-[1-hydroxy-2-(2-methyl-1-phenyl-2-propylamino)ethyl]methanesulfonanilide]: in series [1] (1.6 w/v %), the “Topical cutaneous anti-inflammatory activity in the croton oil assay (in words)” value is on record as “high topical cutaneous anti-inflammatory activity”. The “% Inhibition of Croton Oil-Induced Mouse Ear Edema” value in series [1] (1.6 w/v %, in DMAC/Acetone/ETOH, salbutamol in Ethanol/H2O (50/50)) is 69% and 50% and 81% and 66% and 63% and 48% and 45%; in series [1] (setting [6]) it was 69% and 63% and 70% and 48% and 73%. Also, in series [1], the “Topical Anti-Inflammatory Activity, Croton Oil Assay (Edema)” value is “+++ (+++ = high (60%))”. In addition, in series [1], the “Reduction in ear edema in the croton oil assay (in words)” value is “good to moderate reductions in ear edema”. The “% Change in UVB-Induced Erythema” value is 9% in series [4] (1.6 w/v %, N-methyl 2-pyrrolidone/ethanol (50/50), 3 h); 26% in series [4] (1.6 w/v %, N-methyl 2-pyrrolidone/ethanol (50/50), 6 h); 48% and 75% in series [4] (setting [13]); 18% and 25% in series [4] (setting [14]). Further, the “Topical Anti-Inflammatory Activity, UV-B Assay (Erythema)” value in series [4] is “+ (+ = Slight (30-44))”. Also, the “Activity in the UVB assay (in words)” value in series [4] is listed as “slight to moderate activity with no consistent dose effect”. In addition, the “% Reduction of Ear Edema Weight as Compared to Control Ears” value was 14.2% and 23.6% in series [2] (setting [7]); 39.5% and 66.2% and 46.6% in series [2] (setting [8]); 68.2% and 56.6% in series [2] (setting [9]). For the same molecule, the entries for the “% Reduction of Ear Edema Weight as Compared to Control Ears, Mean ± S.D.” value in series [2] (setting [7]), in series [2] (setting [8]) and in series [2] (setting [9]) were 18.9 ± 6.6%, 50.8 ± 13.8% and 62.4 ± 8.2%, respectively. In series [3] (3 and 1.6 weight percent), the “Reduction in ear edema in the oxazolone assay (in words)” value is given as “slight reduction in ear edema with no dose-related effect”. The “% Inhibition … in Mouse Ear” value in series [3] (setting [12]) is given as 39%. For the same molecule, the “Topical Anti-Inflammatory Activity, Oxazolone Assay (Edema)” value in series [3] is reported as “+ (+ = Slight (30-44))”.

Take `CC(C)(Cc1ccccc1)NCC(O)c1ccc(O)c(NS(C)(=O)=O)c1` (centres unmarked) [zinterol hydrochloride]: the solubility in series [5] (organic solvent or mixture, cream vehicle, read-out: Amount that will dissolve in creams) is ≤ 7000 µg/mL. In addition, in series [5] (water), the “Solubility (in words)” value was “water soluble”.

The values are drawn from US4540581A, “Topical nonsteroidal anti-inflammatory compositions and uses” (Bristol-Myers Company, priority 1984, dated 1985).
